Values of other authors as cited in patent US20250375396A1 (priority 2016, published 2025).
Structures can show the parent of a compound that is named as a salt.

Settings: not given

Compound | pKa
O=C([O-])[O-].[Na+].[Na+] [Sodium carbonate] | 10.3

Same assay, conditions: conjugated acid amine

Compound | Equilibrium Constant of Acid Amine (pKa(acid amine))
COC(=O)C(c1ccccc1)C1CCCCN1 (stereo not drawn) [Methyl phenidate HCl] | 8.77
CCN(C)C(=O)Oc1cccc([C@H](C)N(C)C)c1 [Rivastigmine HCl] | 8.85
CCCN(CCC)CCc1cccc2c1CC(=O)N2 [Ropinirole HCl] | 9.68
CCCN(CCc1cccs1)[C@H]1CCc2c(O)cccc2C1 [Rotigotine HCl] | 7.90
CCOc1ccccc1OCCN[C@H](C)Cc1ccc(OC)c(S(N)(=O)=O)c1 [Tamsulosin HCl] | 8.37
